Reference: patent US9339522B2, “Method for regulating blood glucose level” (SINPHAR PHARMACEUTICAL CO., LTD., priority 2013, dated 2016)

Tests used:
[1] = system: mice having type I diabetes or type II diabetes induced by different medicaments; settings: mice with induced type I or type II diabetes; acteoside obtained from plantago; CN 102283854 A; cited from earlier work
[2] = system: liver cells; settings: acteoside obtained from plantago, CN 102283854 A; cited from earlier work
[3] = system: human hepatocellular liver carcinoma cell line (HepG2); test: Carbohydrate consumption assay in HepG2 cells; format: cell-based
Description: A carbohydrate consumption assay was conducted by using human hepatocellular liver carcinoma cell line (HepG2, Bioresource Collection and Research Center, BCRC number: 60025). The cells were treated with 1000 μg/ml glucose, and then treated with 100 nM insulin, 50 μg/ml Cistanche tubulosa extract (CTE), 12.5 μg/ml of echinacoside, 1.25 μg/ml of acteoside, or 2.25 μg/ml of isoacteoside (i.e., an active component by an amount of what it presents in the extract). After 1 hour, the carbohydrate consumption level was determined. The results are shown in FIG. 10, wherein the data were shown as mean±standard deviation (n=3); ***P<0.001 (as compared to the control group).
To further confirm if the active components that are present in Cistanche tubulosa extract have the effect of accelerating liver cells to uptake blood sugar, a carbohydrate consumption assay as described above was conducted by using different concentrations of Cistanche tubulosa extract, echinacoside, acteoside and isoacteoside to treated the HepG2 cells. The results are shown in FIG. 11, wherein the data were shown as mean±standard deviation (n=3); **P<0.01; ***P<0.001 (as compared to the control group); #P<0.05 (as compared to the insulin group).

[4] = Weights of the liver, kidney, heart, and abdominal fat of the rats; format: in vivo, SD (Sprague-Dawley) rats; settings: DMR group: rosiglitazone 0.571 mg/kg body weight oral once daily 6 weeks; DM + 45% HFD rats; mean, n = 10
Description: (§1) 4-week-old male SD (Sprague-Dawley) rats were fed for one week, and then randomly divided into six groups (10 rats in each group), including five experimental groups and a control group. The rats in the experimental groups were intraperitoneally injected with 230 mg/kg body weight of nicotinamide, and then intraperitoneally injected with 65 mg/kg body weight of streptozocin to induced diabetes mellitus (the DM group). The control group was intraperitoneally injected with the same volume of a citrate buffer (pH 4.5). After a week, the fasting blood glucose of the induced diabetic rats in the experimental groups were measured, to confirmed the fasting blood glucose>[…]. The rats were then fed with a 45% high fat diet (HFD) for 6 weeks. Then, using the dosage shown in Table 1, the rats were orally administered with 0.571 mg/kg body weight of rosiglitazone (a medicine for regulating blood glucose levels, which is an insulin sensitizer) (DMR group) or 80 mg/kg body weight of Cistanche tubulosa extract (CTE) (DME1 group), 160 mg/kg body weight of CTE (DME2 group), or 320 mg/kg body weight of CTE (DME4 group), once daily for 6 weeks. The rats in the control group and the DM group were administered with double distilled water once daily for 6 weeks. The body weight of the rats was measured weekly and the caloric intake was calculated. The results are shown in FIG. 1 (body weight) and FIG. 2 (caloric intake).
In this experiment, the weights of the liver, kidney, heart, and abdominal fat of the rats treated with different conditions for 6 weeks were determined.

[5] = system: induced diabetic rats; test: Determination of plasma insulin concentration (ELISA); format: in vivo, SD (Sprague-Dawley) rats; settings: DMR group: rosiglitazone 0.571 mg/kg body weight oral once daily 6 weeks, DM + 45% HFD rats, mean, n = 10
Description: (§2) 4-week-old male SD (Sprague-Dawley) rats were fed for one week, and then randomly divided into six groups (10 rats in each group), including five experimental groups and a control group. The rats in the experimental groups were intraperitoneally injected with 230 mg/kg body weight of nicotinamide, and then intraperitoneally injected with 65 mg/kg body weight of streptozocin to induced diabetes mellitus (the DM group). The control group was intraperitoneally injected with the same volume of a citrate buffer (pH 4.5). […] The rats in the control group and the DM group were administered with double distilled water once daily for 6 weeks. The body weight of the rats was measured weekly and the caloric intake was calculated.
(§3) After the above glucose tolerance test, the rats were sacrificed, and the blood samples were taken from the celiac artery. The blood samples were centrifuged at 3000 rpm, 4° C. for 15 minutes. The supernatant was collected, which is the plasma. Other tissue of the rats was also taken out and weighed, and then stored at −80° C. for the following biochemical data analysis.

[6] = system: induced diabetic rats; test: Determination of total triglyceride concentration in plasma; format: in vivo, SD (Sprague-Dawley) rats; settings: DMR group: rosiglitazone 0.571 mg/kg body weight oral once daily 6 weeks, DM + 45% HFD rats, mean, n = 10
Description: as §2, §3

[7] = system: induced diabetic rats; test: Liver and kidney function indicators in plasma (urea, creatinine, ALT, AST); format: in vivo, SD (Sprague-Dawley) rats; settings: DMR group: rosiglitazone 0.571 mg/kg body weight oral once daily 6 weeks, DM + 45% HFD rats, mean, n = 10
Description: as §2, §3
It has been known that diabetes mellitus may cause a lot of complications.

[8] = Body weight and caloric intake of diabetic SD rats during 6 weeks treatment; format: in vivo, SD (Sprague-Dawley) rats; settings: FIG. 1; measured weekly; comparison between groups; rosiglitazone 0.571 mg/kg, CTE 80, 160, 320 mg/kg oral once daily 6 weeks
Description: as §1, with “The results are shown in FIG. 1 (body weight) and FIG. 2 (caloric intake).” left out

[9] = system: induced diabetic rats; test: Determination of total cholesterol concentration in plasma; format: in vivo, SD (Sprague-Dawley) rats; settings: DMR group: rosiglitazone 0.571 mg/kg body weight oral once daily 6 weeks, DM + 45% HFD rats, mean, n = 10
Description: as §2, §3

[10] = system: induced diabetic rats; test: Homeostasis model assessment equation of insulin resistance (HOMA-IR); format: in vivo, SD (Sprague-Dawley) rats; settings: DMR group: rosiglitazone 0.571 mg/kg body weight oral once daily 6 weeks; DM + 45% HFD rats; mean, n = 10
Description: 4-week-old male SD (Sprague-Dawley) rats were fed for one week, and then randomly divided into six groups (10 rats in each group), including five experimental groups and a control group. The rats in the experimental groups were intraperitoneally injected with 230 mg/kg body weight of nicotinamide, and then intraperitoneally injected with 65 mg/kg body weight of streptozocin to induced diabetes mellitus (the DM group). The control group was intraperitoneally injected with the same volume of a citrate buffer (pH 4.5). After a week, the fasting blood glucose of the induced diabetic rats in the experimental groups were measured, to confirmed the fasting blood glucose>[…]. The rats were then fed with a 45% high fat diet (HFD) for 6 weeks. […] The body weight of the rats was measured weekly and the caloric intake was calculated. […]
The homeostasis model assessment equation of insulin resistance (HOMA-IR) was calculated by the formula as follows: HOMA-IR=fasting plasma insulin concentration (mU/ml)×fasting plasma glucose concentration (mmole/L)÷22.5

[11] = system: induced diabetic rats; test: Determination of fasting plasma glucose concentration; format: in vivo, SD (Sprague-Dawley) rats; settings: DMR group: rosiglitazone 0.571 mg/kg body weight oral once daily 6 weeks; DM + 45% HFD rats; mean, n = 10
Description: as §2, §3

[12] = system: induced diabetic rats; test: Determination of plasma leptin concentration (enzyme immunoassay); format: in vivo, SD (Sprague-Dawley) rats; settings: DMR group: rosiglitazone 0.571 mg/kg body weight oral once daily 6 weeks, DM + 45% HFD rats, mean, n = 10
Description: as §2, §3

[13] = system: induced diabetic rats; test: Over-oxidation of plasma lipid (plasma malondialdehyde); format: in vivo, SD (Sprague-Dawley) rats; settings: DMR group: rosiglitazone 0.571 mg/kg body weight oral once daily 6 weeks, DM + 45% HFD rats, mean, n = 10
Description: as §2, §3

[14] = system: induced diabetic rats; test: Plasma antioxidant enzymes (SOD, catalase, GPx); format: in vivo, SD (Sprague-Dawley) rats; settings: DMR group: rosiglitazone 0.571 mg/kg body weight oral once daily 6 weeks, DM + 45% HFD rats, mean, n = 10
Description: as §2, §3
It has been known that both Type I diabetes mellitus and Type II diabetes mellitus may cause the decreased expression of antioxidant enzymes in the body, and thus, increases oxidative stress. In this experiment, the concentrations of superoxide dismutase (SOD) catalase, and glutathione peroxidase (GPx) in the plasma of the rats were analyzed by an SOD detection kit, a catalase detection kit, and a GPx detection kit (Eugene-Chen CO., LTD, TW), respectively, to analyze the effect of CTE on the expression levels of antioxidant enzymes.

[15] = FIG. 11, 5 μg/ml and 50 μg/ml, HepG2, compared to the control group, dose dependence
[16] = FIG. 11, very low concentration, such as 5 μg/ml, HepG2

## C[C@@H]1O[C@@H](O[C@@H]2[C@@H](O)[C@H](OCCc3ccc(O)c(O)c3)O[C@H](CO)[C@H]2OC(=O)/C=C/c2ccc(O)c(O)c2)[C@H](O)[C@H](O)[C@H]1O [acteoside]
[1]
  Fasting blood glucose level: decrease
  Serum insulin level: enhancing
[2]
  Consumption of glucose: effective in promoting the consumption of glucose
[3]; FIG. 10, 1.25 μg/ml, HepG2, 1000 μg/ml glucose, after 1 hour, compared to the control group
  Carbohydrate consumption level: not obvious
[3]; [15]
  Carbohydrate consumption level: effectively increase

## C[C@@H]1O[C@@H](O[C@@H]2[C@@H](O)[C@H](OCCc3ccc(O)c(O)c3)O[C@H](CO[C@@H]3O[C@H](CO)[C@@H](O)[C@H](O)[C@H]3O)[C@H]2OC(=O)/C=C/c2ccc(O)c(O)c2)[C@H](O)[C@H](O)[C@H]1O [echinacoside]
[3]; FIG. 10, 12.5 μg/ml, HepG2, 1000 μg/ml glucose, after 1 hour, compared to the control group
  Carbohydrate consumption level: effectively increase
[3]; [15]
  Carbohydrate consumption level: effectively increase
[3]; [16]
  Carbohydrate consumption level: increase

## C[C@@H]1O[C@@H](O[C@@H]2[C@@H](O)[C@H](OCCc3ccc(O)c(O)c3)O[C@H](COC(=O)/C=C/c3ccc(O)c(O)c3)[C@H]2O)[C@H](O)[C@H](O)[C@H]1O [isoacteoside]
[3]; FIG. 10, 2.25 μg/ml, HepG2, 1000 μg/ml glucose, after 1 hour, compared to the control group
  Carbohydrate consumption level: effectively increase
[3]; [15]
  Carbohydrate consumption level: effectively increase
[3]; [16]
  Carbohydrate consumption level: increase

## CN(CCOc1ccc(CC2SC(=O)NC2=O)cc1)c1ccccn1 (stereo not shown) [rosiglitazone]
[4]
  Abdominal fat weight, percentage compared to body weight: 2.49%
  Heart weight, percentage compared to body weight: 0.34%
  Kidney weight, percentage compared to body weight: 0.34%
  Liver weight, percentage compared to body weight: 3.21%
[5]
  Insulin: 3.57 ng/mL
[6]
  The total triglyceride: 62.77 mg/dL
[7]
  ALT: 29.88 U/L
  AST: 38.24 U/L
  AST/ALT: 1.34
  Creatinine: 1.19 mg/dL
  Urea: 19.14 mg/dL
[8]
  Body weight: no significant difference
[9]
  Total cholesterol: 106.90 mg/dL
[10]
  HOMA-IR: 2.37 μg · mmole/L^2
[11]
  Fasting blood glucose: 134.37 mg/dL
[12]
  Leptin: 6.38 ng/mL
[13]
  Malondialdehyde: 13.38 nM/ml
[14]
  Catalase: 60.05 U/mg protein
  Glutathione peroxidase: 811.08 U/mg protein
  Superoxide dismutase: 0.65 U/mg protein
